Consider seven compounds from ChEMBL document CHEMBL5226350, “NSAIDs: Old Acquaintance in the Pipeline for Cancer Treatment and Prevention─Structural Modulation, Mechanisms of Action, and Bright Future” (J Med Chem, 2021).

The structures appear in SMILES notation.

The subject of assay [1] is HT-29. Nature of the assay: Antitumor activity against human HT-29 cells xenografted in sc dosed mouse assessed as reduction in tumor volume measured after 10 days relative to control. The format is functional. Also on record: scale not given: the % may be the effect or the level left. The conditions noted are these: time 10 day. On the technique in general: Xenograft models place foreign cells or tissue in a host animal.

The subject of a further assay is U-118-MG. In words: Antitumor activity against human U-118-MG cells xenografted in sc dosed BALB/c mouse assessed as tumor growth inhibition at 20 mg/kg measured after 29 days relative to control. The conditions noted are these: 696 h, time 29 day, read-out: TGI. Type of assay: functional.
Another assay has as its system A549. In words: Antitumor activity against human A549 cells xenografted in ip dosed mouse assessed as tumor growth inhibition at 200 mg/kg measured after 6 weeks relative to control. The format is functional. Set-up: scale not given: the % may be the effect or the level left.
A further assay deals with A-431. In words: Antitumor activity against human A-431 cells xenografted in sc dosed mouse assessed as tumor growth inhibition measured after 15 days in presence of diclofenac relative to control. The following applies: time 15 day. Type of assay: functional.
The test system of assay [2] is HT-29. Nature of the assay: Antitumor activity against human HT-29 cells xenografted in ip dosed mouse assessed as reduction in tumor volume measured after 21 days relative to control. Type of assay: functional. Also on record: scale not given: the % may be the effect or the level left. The conditions noted are these: time 21 day.
The next assay deals with Mus musculus. In words: Inhibition of pancreatitis-accelerated acinar-to-ductal metaplasia in C57Bl/6J mouse harboring Kras G12D mutant at 100 mg/kg ,po administered via gavage measured after 3 weeks in presence of cerulein relative to control. Type of assay: toxicity, organism-based. The conditions noted are these: 504 h.
A further assay relates to PANC-1. In words: Antitumor activity against human PANC-1 cells xenografted in po dosed BALB/c mouse assessed as tumor growth inhibition measured after 30 days relative to control. Type of assay: functional. The following applies: time 30 day.
For assay [3], the system named is HT-29. In words: Antitumor activity against human HT-29 cells xenografted in sc dosed Apc/Min mouse assessed as reduction in tumor growth in presence of DFMO relative to control. The format is functional.
In assay [4] the test system is HT-29. In words: Antitumor activity against human HT-29 cells expressing Trx-1 xenografted in sc dosed mouse in presence of DFMO by immunohistochemical staining based analysis relative to control. Type of assay: functional.
Assay [5] deals with HT-29. Nature of the assay: Antitumor activity against human HT-29 cells expressing Trx-1 xenografted in sc dosed mouse assessed as reduction in tumor volume in presence of DFMO by immunohistochemical staining based analysis relative to control. Type of assay: functional. Set-up: scale not given: the % may be the effect or the level left.

`O=C(CCCO[N+](=O)[O-])Oc1ccccc1C(=O)Oc1ccc(-c2cc(=S)ss2)cc1`: the Activity in the assay with HT-29 [1] came to 85%.

As for `CCOP(=O)(OCC)OCC(CNC(=O)C(C)c1ccc(CC(C)C)cc1)OP(=O)(OCC)OCC` (stereo not given), in the assay on U-118-MG, the inhibition in vivo at 20 mg/kg was found to be 77%.

On to `CCOP(=O)(OCC)OCCCCNC(=O)C(C)c1ccc(CC(C)C)cc1` (stereo not given), for which the Activity in the assay with A549 is more than 95%.

For the compound `NCCCC(N)(C(=O)O)C(F)F` (stereo not given) [EFLORNITHINE], the TGI in the assay on A-431 turned out to be 90%.

On to `CCOP(=O)(OCC)OCc1cccc(OC(=O)c2ccccc2OC(C)=O)c1`, for which the Activity with HT-29 [2] is on record as more than 60%.

In the case of `CCOP(=O)(OCC)OCC(COC(=O)c1ccccc1OC(C)=O)OP(=O)(OCC)OCC` (stereo not given), the inhibition at 100 mg/kg with Mus musculus worked out at 83%. Moreover, the tumour growth inhibition (TGI) in the assay on PANC-1 worked out at 78%.

With `CCOP(=O)(OCC)OCCCCOC(=O)CC1=C(C)/C(=C/c2ccc([S+](C)[O-])cc2)c2ccc(F)cc21` (stereo not given), the TGI with HT-29 [3] turned out to be 90%. The Activity in the assay with HT-29 [4] is listed as 50%; in the assay on HT-29 [5], 83%.

In general, TGI refers to the reduction of tumour growth relative to the control group. Usually inhibition stands for the change of the read-out against control, counted positive when it falls.
